Assay results as given in ChEMBL document CHEMBL4304757, “Synthetic heterocyclic candidates as promising α-glucosidase inhibitors: An overview” (Eur J Med Chem, 2019).

Key:
[1] = target: T1, Alpha glucosidase (Homo sapiens, UniProt O43451+P10253+P14410+Q2M2H8); test: Inhibition of alpha-glucosidase (unknown origin) using p-nitrophenyl-alpha-d-glucopyranoside as substrate preincubated for 15 mins followed by substrate addition measured after 30 mins; assay type: protein assay
[2] = target: T1, Alpha glucosidase; test: Inhibition of alpha-glucosidase (unknown origin); assay type: protein assay

| Structure (SMILES) | IC50 [1] | IC50 [2] |
| --- | --- | --- |
| Cc1ccc(C(c2c[nH]c3ccc(C(=O)NNS(=O)(=O)c4ccccc4[N+](=O)[O-])cc23)c2c[nH]c3ccc(C(=O)NNS(=O)(=O)c4ccccc4[N+](=O)[O-])cc23)cc1 | 2.1 µM | – |
| Cc1ccc(C(c2c[nH]c3ccc(C(=O)NNS(=O)(=O)c4cccc(Cl)c4Cl)cc23)c2c[nH]c3ccc(C(=O)NNS(=O)(=O)c4cccc(Cl)c4Cl)cc23)cc1 | 0.1 to 5.1 µM | – |
| COc1ccc(-c2csc(N/N=C3\C(=O)N(Cc4ccccc4F)c4ccc(C)cc43)n2)cc1 | 5.3 to 35 µM | – |
| O=C(C[C@@H](c1ccc(Br)cc1)c1c[nH]c2ccccc12)c1ccccc1 | – | 4.3 to 43 µM |
| O=C(Cc1ccc(Cl)c(Cl)c1)N/N=C1\C(=O)Nc2cc(Br)ccc21 | – | 2.2 to 83 µM |
| Cc1[nH]c2ccccc2c1-c1nnc(-c2ccc(C(c3c[nH]c4ccccc34)c3c[nH]c4ccccc34)cc2)o1 | – | 20 to 292 µM |
| Cc1ccc(-c2csc(NC(=O)CSc3nnc(-c4ccccc4)c(-c4ccccc4)n3)n2)cc1 | 2.8 to 14 µM | – |
| Cc1ccc(C(c2c[nH]c3ccc(C(=O)NNS(=O)(=O)c4ccc(Cl)cc4Cl)cc23)c2c[nH]c3ccc(C(=O)NNS(=O)(=O)c4ccc(Cl)cc4Cl)cc23)cc1 | 0.1 to 5.1 µM | – |
| O=C1Nc2ccc(F)cc2/C1=N/Nc1nc(-c2ccc(F)cc2)cs1 | 5.3 to 35 µM | – |
| CC(C)Cn1cc(C2(c3cn(CC(C)C)c4ccccc34)C(=O)Nc3ccccc32)c2ccccc21 | 5.9 to 145 µM | – |
| O=C(Cc1ccc(Cl)cc1Cl)N/N=C1\C(=O)Nc2cc(Br)ccc21 | – | 2.2 µM |
| CCCCn1cc(C2(c3cn(CCCC)c4ccccc34)C(=O)Nc3ccccc32)c2ccccc21 | 5.9 to 145 µM | – |
| COc1cc(-c2ccc(F)cc2)ccc1O[C@H](C)Cn1cc(-c2ccc(C(F)(F)F)cc2)nn1 | 14 to 218 µM | – |
| O=C(C[C@@H](c1cccs1)c1c[nH]c2ccccc12)c1ccc2ccccc2c1 | – | 4.3 to 43 µM |
| O=C1Nc2ccccc2C1(c1c[nH]c2ccccc12)c1c[nH]c2ccccc12 | 5.9 to 145 µM | – |
| Cn1cc(C2(c3cn(C)c4ccccc34)C(=O)Nc3ccccc32)c2ccccc21 | 5.9 to 145 µM | – |
| Cc1ccc(C(c2c[nH]c3ccc(C(=O)NNS(=O)(=O)c4ccccc4Cl)cc23)c2c[nH]c3ccc(C(=O)NNS(=O)(=O)c4ccccc4Cl)cc23)cc1 | 0.1 to 5.1 µM | – |
| Cc1ccc(C(c2c[nH]c3ccc(C(=O)NNS(=O)(=O)c4ccc([N+](=O)[O-])cc4)cc23)c2c[nH]c3ccc(C(=O)NNS(=O)(=O)c4ccc([N+](=O)[O-])cc4)cc23)cc1 | 2.1 µM | – |
| COc1cc(Br)ccc1O[C@H](C)Cn1cc(-c2ccc(C(F)(F)F)cc2)nn1 | 14 to 218 µM | – |
| O=c1oc2ccccc2cc1OCC(O)CSc1nnc(-c2cccc(Br)c2)c(-c2cccc(Br)c2)n1 (stereo not given) | 32 µM | – |
| CN1C(=O)/C(=N\Nc2nc(-c3ccc(F)cc3)cs2)c2ccccc21 | 5.3 to 35 µM | – |
| Cc1cc(C)c2c(c1)/C(=N/Nc1nc(-c3ccc(F)cc3)cs1)C(=O)N2 | 5.3 to 35 µM | – |
| O=C(CSc1nnc(-c2ccccc2)c(-c2ccccc2)n1)Nc1nc(-c2ccc(Br)cc2)cs1 | 2.8 to 14 µM | – |
| Cc1ccc(C(c2c[nH]c3ccc(C(=O)NNS(=O)(=O)c4ccc(Br)cc4)cc23)c2c[nH]c3ccc(C(=O)NNS(=O)(=O)c4ccc(Br)cc4)cc23)cc1 | 0.1 to 5.1 µM | – |
| O=C(CSc1nnc(-c2ccc(F)cc2)c(-c2ccc(F)cc2)n1)Nc1nc(-c2ccc(Br)cc2)cs1 | 2.8 to 14 µM | – |
| O=C(CSc1nnc(-c2ccc(F)cc2)c(-c2ccc(F)cc2)n1)Nc1nc(-c2ccc(F)cc2)cs1 | 2.8 to 14 µM | – |
| COc1ccc(-c2csc(NC(=O)CSc3nnc(-c4ccccc4)c(-c4ccccc4)n3)n2)cc1 | 2.8 to 14 µM | – |

| Structure (SMILES) | IC50 [1] | IC50 [2] |
| --- | --- | --- |
| COc1cc(Br)ccc1O[C@H](C)Cn1cc(-c2ccccc2)nn1 | 14 to 218 µM | – |
| Cc1ccc2c(c1)C(c1c[nH]c3ccccc13)(c1c[nH]c3ccccc13)C(=O)N2 | 5.9 to 145 µM | – |
| Cc1ccc(-c2csc(N/N=C3\C(=O)Nc4c(C)cc(C)cc43)n2)cc1 | 5.3 to 35 µM | – |
| O=C1Nc2ccccc2C1(c1cn(Cc2cccc(F)c2)c2ccccc12)c1cn(Cc2cccc(F)c2)c2ccccc12 | 5.9 to 145 µM | – |
| Cc1ccc(-c2csc(NC(=O)CSc3nnc(-c4ccc(Br)cc4)c(-c4ccc(Br)cc4)n3)n2)cc1 | 2.8 to 14 µM | – |
| Cc1ccc(-c2csc(N/N=C3\C(=O)Nc4ccccc43)n2)cc1 | 5.3 to 35 µM | – |
| Cc1ccc(-c2csc(N/N=C3\C(=O)N(C)c4ccccc43)n2)cc1 | 5.3 to 35 µM | – |
| O=c1ccc2ccc(OCC(O)CSc3nnc(-c4ccc(F)cc4)c(-c4ccc(F)cc4)n3)cc2o1 (stereo not given) | 32 to 148 µM | – |
| O=C(CSc1nnc(-c2ccc(Br)cc2)c(-c2ccc(Br)cc2)n1)Nc1nc(-c2ccc(F)cc2)cs1 | 2.8 to 14 µM | – |
| COc1ccc(-c2ccc(O[C@H](C)Cn3cc(-c4ccc(C(F)(F)F)cc4)nn3)c(OC)c2)cc1 | 14 µM | – |
| CC(C)n1cc(C2(c3cn(C(C)C)c4ccccc34)C(=O)Nc3ccccc32)c2ccccc21 | 5.9 to 145 µM | – |
| Cc1ccc(C(c2c[nH]c3ccc(C(=O)NNS(=O)(=O)c4cc(Cl)ccc4Cl)cc23)c2c[nH]c3ccc(C(=O)NNS(=O)(=O)c4cc(Cl)ccc4Cl)cc23)cc1 | 0.1 to 5.1 µM | – |
| O=C(CSc1nnc(-c2ccccc2)c(-c2ccccc2)n1)Nc1nc(-c2ccccc2)cs1 | 2.8 to 14 µM | – |
| COc1ccc(-c2csc(N/N=C3\C(=O)N(C)c4ccccc43)n2)cc1 | 5.3 to 35 µM | – |
| Cc1ccc(-c2csc(N/N=C3\C(=O)Nc4ccc(F)cc43)n2)cc1 | 5.3 to 35 µM | – |
| Cc1ccc(-c2csc(N/N=C3\C(=O)N(Cc4ccccc4F)c4ccc(C)cc43)n2)cc1 | 5.3 to 35 µM | – |
| Cc1cc(C)c2c(c1)/C(=N/Nc1nc(-c3ccc(Br)cc3)cs1)C(=O)N2 | 5.3 to 35 µM | – |
| Cc1ccc(C(c2c[nH]c3ccc(C(=O)NNS(=O)(=O)c4ccc([N+](=O)[O-])cc4[N+](=O)[O-])cc23)c2c[nH]c3ccc(C(=O)NNS(=O)(=O)c4ccc([N+](=O)[O-])cc4[N+](=O)[O-])cc23)cc1 | 0.5 µM | – |
| CCCn1cc(C2(c3cn(CCC)c4ccccc34)C(=O)Nc3ccccc32)c2ccccc21 | 5.9 to 145 µM | – |
| O=C(CSc1nnc(-c2ccccc2)c(-c2ccccc2)n1)Nc1nc(-c2ccc(F)cc2)cs1 | 2.8 to 14 µM | – |
| O=c1ccc2ccc(OCC(O)CSc3nnc(-c4ccccc4)c(-c4ccccc4)n3)cc2o1 (stereo not given) | 32 to 148 µM | – |
| O=c1ccc2ccc(OCC(O)CSc3nnc(-c4cccc(F)c4)c(-c4cccc(F)c4)n3)cc2o1 (stereo not given) | 32 to 148 µM | – |
| Cc1ccc(-c2csc(NC(=O)CSc3nnc(-c4ccc(F)cc4)c(-c4ccc(F)cc4)n3)n2)cc1 | 2.8 to 14 µM | – |
| O=c1oc2ccccc2cc1OCC(O)CSc1nnc(-c2ccc(F)cc2)c(-c2ccc(F)cc2)n1 (stereo not given) | 32 to 148 µM | – |
| Cc1ccc2c(c1)/C(=N/Nc1nc(-c3ccc(O)cc3)cs1)C(=O)N2 | 5.3 to 35 µM | – |
| COc1ccc(-c2csc(NC(=O)CSc3nnc(-c4ccc(Br)cc4)c(-c4ccc(Br)cc4)n3)n2)cc1 | 2.8 µM | – |
| Cc1ccc(C(c2c[nH]c3ccc(C(=O)NNS(=O)(=O)c4ccc(Cl)c(Cl)c4)cc23)c2c[nH]c3ccc(C(=O)NNS(=O)(=O)c4ccc(Cl)c(Cl)c4)cc23)cc1 | 0.1 to 5.1 µM | – |

| Structure (SMILES) | IC50 [1] | IC50 [2] |
| --- | --- | --- |
| Cc1ccc(C(c2c[nH]c3ccc(C(=O)NNS(=O)(=O)c4ccc(C)cc4)cc23)c2c[nH]c3ccc(C(=O)NNS(=O)(=O)c4ccc(C)cc4)cc23)cc1 | 0.1 to 5.1 µM | – |
| O=C(CSc1nnc(-c2ccc(F)cc2)c(-c2ccc(F)cc2)n1)Nc1nc(-c2ccc(Cl)cc2)cs1 | 2.8 to 14 µM | – |
| O=C(CSc1nnc(-c2ccc(Br)cc2)c(-c2ccc(Br)cc2)n1)Nc1nc(-c2ccc(Br)cc2)cs1 | 2.8 to 14 µM | – |
| O=C(CSc1nnc(-c2ccc(F)cc2)c(-c2ccc(F)cc2)n1)Nc1nc(-c2ccccc2)cs1 | 2.8 to 14 µM | – |
| O=C1Nc2ccc(Br)cc2C1(c1c[nH]c2ccccc12)c1c[nH]c2ccccc12 | 5.9 to 145 µM | – |
| O=C(CSc1nnc(-c2ccccc2)c(-c2ccccc2)n1)Nc1nc(-c2ccc(Cl)cc2)cs1 | 2.8 to 14 µM | – |
| O=C1Nc2ccccc2C1(c1cn(Cc2ccccc2F)c2ccccc12)c1cn(Cc2ccccc2F)c2ccccc12 | 5.9 µM | – |
| Cc1ccc(C(c2c[nH]c3ccc(C(=O)NNS(=O)(=O)c4ccccc4Br)cc23)c2c[nH]c3ccc(C(=O)NNS(=O)(=O)c4ccccc4Br)cc23)cc1 | 0.1 to 5.1 µM | – |
| COc1cc(-c2ccc([N+](=O)[O-])cc2)ccc1O[C@H](C)Cn1cc(-c2ccc(C(F)(F)F)cc2)nn1 | 14 to 218 µM | – |
| COc1cc(Br)ccc1O[C@H](C)Cn1cc(-c2ccc(F)cc2)nn1 | 14 to 218 µM | – |
| Cc1ccc(C(c2c[nH]c3ccc(C(=O)NNS(=O)(=O)c4cc(Cl)cc(Cl)c4)cc23)c2c[nH]c3ccc(C(=O)NNS(=O)(=O)c4cc(Cl)cc(Cl)c4)cc23)cc1 | 0.1 to 5.1 µM | – |
| O=C1Nc2ccc(Cl)cc2/C1=N/Nc1nc(-c2ccc(Br)cc2)cs1 | 5.3 to 35 µM | – |
| COC(=O)c1cn(C[C@@H](C)Oc2ccc(Br)cc2OC)nn1 | 14 to 218 µM | – |
| Cc1ccc2c(c1)/C(=N/Nc1nc(-c3ccc(O)cc3)cs1)C(=O)N2Cc1ccccc1F | 5.3 µM | – |
| Cc1ccc(C(c2c[nH]c3ccc(C(=O)NNS(=O)(=O)c4cc(Cl)c(Cl)cc4Cl)cc23)c2c[nH]c3ccc(C(=O)NNS(=O)(=O)c4cc(Cl)c(Cl)cc4Cl)cc23)cc1 | 0.3 to 2.5 µM | – |
| COc1cc(-c2ccc(C)cc2)ccc1O[C@H](C)Cn1cc(-c2ccc(C(F)(F)F)cc2)nn1 | 14 to 218 µM | – |
| O=C(CSc1nnc(-c2ccc(Br)cc2)c(-c2ccc(Br)cc2)n1)Nc1nc(-c2ccccc2)cs1 | 2.8 to 14 µM | – |
| O=C(CSc1nnc(-c2ccc(Br)cc2)c(-c2ccc(Br)cc2)n1)Nc1nc(-c2ccc(Cl)cc2)cs1 | 2.8 to 14 µM | – |
| O=C1Nc2ccccc2/C1=N/Nc1nc(-c2ccc(F)cc2)cs1 | 5.3 to 35 µM | – |
| O=C1Nc2ccccc2/C1=N/Nc1nc(-c2ccc(Cl)cc2)cs1 | 5.3 to 35 µM | – |
| O=C1Nc2ccccc2C1(c1cn(Cc2ccc(Br)cc2)c2ccccc12)c1cn(Cc2ccc(Br)cc2)c2ccccc12 | 5.9 to 145 µM | – |
| O=C1Nc2ccccc2C1(c1cn(Cc2ccccc2Cl)c2ccccc12)c1cn(Cc2ccccc2Cl)c2ccccc12 | 5.9 to 145 µM | – |
| O=C1Nc2ccccc2C1(c1cn(Cc2ccccc2)c2ccccc12)c1cn(Cc2ccccc2)c2ccccc12 | 5.9 to 145 µM | – |
| O=c1oc2ccccc2cc1OCC(O)CSc1nnc(-c2ccco2)c(-c2ccco2)n1 (stereo not given) | 32 to 148 µM | – |
| O=c1ccc2ccc(OCC(O)CSc3nnc(-c4ccco4)c(-c4ccco4)n3)cc2o1 (stereo not given) | 32 to 148 µM | – |
| Cc1ccc(C(c2c[nH]c3ccc(C(=O)NNS(=O)(=O)c4cccc([N+](=O)[O-])c4)cc23)c2c[nH]c3ccc(C(=O)NNS(=O)(=O)c4cccc([N+](=O)[O-])c4)cc23)cc1 | 2.1 µM | – |
